The test system of this assay is pseudorabies virus (PRV). Details: species or system pigs. The settings on record: pig, in vivo.

As for “KKSVRGKGKGQKRKRKKSRYKSWSV [VEGF peptide]”, the “protection from mortality caused by challenge with virulent PRV” value is given as “protected the animals from mortality”. Consider YVRVRRPPKGKHRKFKHTH [PDGF peptide], for which the “protection from mortality caused by challenge with virulent PRV” value is “protected the animals from mortality”.
